Key:
Test in all cases: combination Emax (second highest fraction inhibited in the dose matrix, 72 h); higher = more inhibition; extreme values may be limits of the assay
NH-12 (Neuroblastoma) = test system: NH-12 (Neuroblastoma)
Outline: (§1)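 Cell lines grown in DMEM/F12 or RPMI with 10% FBS were plated in 1536-well plates and held 24 hours at 37°C, 5% CO2 before 72 hours of exposure to two-drug dose matrices, with DMSO typically at 0.2%. CellTiter-Glo 2.0 luminescence gave viability, which was converted to inhibition. Vehicle wells were set to 0 and blank wells to 1. Combination Emax is the second-highest inhibition in the matrix, and Bliss excess is the observed combination effect minus the expected EA + EB − EA·EB, where EA and EB are the single-agent effects.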

[1] = test system: SCC-9 (Oral Cavity Carcinoma)
Outline: as §1

RPMI-7951 (Melanoma) = test system: RPMI-7951 (Melanoma)
Outline: as §1

[2] = test system: NCI-N87 (Gastric Carcinoma)
Outline: as §1

EW-13 (Ewing's Sarcoma) = test system: EW-13 (Ewing's Sarcoma)
Outline: as §1

IMR-5 (Neuroblastoma) = test system: IMR-5 (Neuroblastoma)
Outline: as §1

[3] = test system: KU-19-19 (Bladder Carcinoma)
Outline: as §1

[4] = test system: LOU-NH91 (Squamous Cell Lung Carcinoma)
Outline: as §1

GOTO (Neuroblastoma) = test system: GOTO (Neuroblastoma)
Outline: as §1

[5] = test system: SCC-3 (B-Cell Non-Hodgkin's Lymphoma)
Outline: as §1

[6] = test system: KINGS-1 (Low Grade Glioma)
Outline: as §1

[7] = test system: LC4-1 (B-Lymphoblastic Leukemia)
Outline: as §1

[8] = test system: KLE (Endometrial Carcinoma)
Outline: as §1

[9] = test system: TGBC11TKB (Gastric Carcinoma)
Outline: as §1

[10] = test system: KP-2 (Pancreatic Carcinoma)
Outline: as §1

[11] = test system: EBC-1 (Squamous Cell Lung Carcinoma)
Outline: as §1

[12] = test system: KYSE-50 (Esophageal Squamous Cell Carcinoma)
Outline: as §1

[13] = test system: OVISE (Ovarian Carcinoma)
Outline: as §1

[14] = test system: MFE-319 (Endometrial Carcinoma)
Outline: as §1

U-87-MG (Glioblastoma) = test system: U-87-MG (Glioblastoma)
Outline: as §1

SMILES	combination Emax (NH-12 (Neuroblastoma))	combination Emax [1]	combination Emax (RPMI-7951 (Melanoma))	combination Emax [2]	combination Emax (EW-13 (Ewing's Sarcoma))	combination Emax (IMR-5 (Neuroblastoma))	combination Emax [3]	combination Emax [4]	combination Emax (GOTO (Neuroblastoma))	combination Emax [5]	combination Emax [6]	combination Emax [7]	combination Emax [8]	combination Emax [9]	combination Emax [10]	combination Emax [11]	combination Emax [12]	combination Emax [13]	combination Emax [14]	combination Emax (U-87-MG (Glioblastoma))
NC1(C(=O)N[C@@H](CCO)c2ccc(Cl)cc2)CCN(c2ncnc3[nH]ccc23)CC1 [Capivasertib] + Cn1cnc2c(F)c(Nc3ccc(Br)cc3Cl)c(C(=O)NOCCO)cc21 [Selumetinib] (first compound max 10 µM, 7x7, partner max 10 µM)	0.585	0.723	0.793	0.755	0.249	0.168	0.921	0.487	0.469	0.363	0.597	0.575	0.484	0.462	0.454	0.963	0.298	0.454	0.644	0.685
Cc1c2c(nn1C)CSCc1cc(n(C)n1)CSc1cc(c3ccccc3c1)OCCCc1c(C(=O)O)n(C)c3c-2c(Cl)ccc13 [AZD5991] + CC1(C)CCC(CN2CCN(c3ccc(C(=O)NS(=O)(=O)c4ccc(NCC5CCOCC5)c([N+](=O)[O-])c4)c(Oc4cnc5[nH]ccc5c4)c3)CC2)=C(c2ccc(Cl)cc2)C1 [Venetoclax] (first compound max 1 µM, 7x7, partner max 1 µM)	0.892	0.256	0.903	0.23	0.675	0.995	0.588	0.221	0.795	0.358	0.266	1	0.156	0.792	0.239	0.199	0.418	0.442	0.881	0.174
C[C@@H](c1ccc2nccn2c1)n1nnc2ncc(-c3cnn(C)c3)nc21 [Savolitinib] + Cc1c2c(nn1C)CSCc1cc(n(C)n1)CSc1cc(c3ccccc3c1)OCCCc1c(C(=O)O)n(C)c3c-2c(Cl)ccc13 [AZD5991] (first compound max 1 µM, 7x7, partner max 1 µM)	0.202	0.185	0.266	0.22	0.313	0.645	0.204	0.199	0.804	0.279	0.323	0.939	0.162	0.507	0.205	1	0.298	0.148	0.406	0.288
NC1(C(=O)N[C@@H](CCO)c2ccc(Cl)cc2)CCN(c2ncnc3[nH]ccc23)CC1 [Capivasertib] + CCN(CCO)CCCOc1ccc2c(Nc3cc(CC(=O)Nc4cccc(F)c4)[nH]n3)ncnc2c1 [AZD2811] (first compound max 10 µM, 7x7, partner max 1 µM)	0.728	0.275	0.766	0.73	0.388	1	0.515	0.519	0.793	0.309	0.429	0.905	0.332	0.244	0.132	0.395	0.388	0.41	0.423	0.648
COc1cc2ncnc(Nc3ccc(F)c(Cl)c3)c2cc1OCCCN1CCOCC1 [Gefitinib] + CC(C)n1c(=O)n(C)c2cnc3cc(F)c(-c4ccc(OCCCN5CCCCC5)nc4)cc3c21 [AZD1390] (first compound max 10 µM, 7x7, partner max 0.3 µM)	0.121	0.626	0.0802	0.845	0.117	0.123	0.0903	0.404	0.257	0.348	0.113	0.221	0.442	0.296	0.0653	0.0862	0.334	0.197	0.0734	0.0691
CC1(C)CCC(CN2CCN(c3ccc(C(=O)NS(=O)(=O)c4ccc(NCC5CCOCC5)c([N+](=O)[O-])c4)c(Oc4cnc5[nH]ccc5c4)c3)CC2)=C(c2ccc(Cl)cc2)C1 [Venetoclax] + Cc1cc2ncnn2cc1Nc1ncc2c(n1)n(C1CCOCC1)c(=O)n2C [AZD7648] (first compound max 1 µM, 7x7, partner max 10 µM)	0.538	0.194	0.334	0.354	0.0496	0.282	0.225	0.264	0.434	0.214	0.329	1	0.444	0.133	0.175	0.26	0.217	0.275	0.26	0.354
CC1(C)CCC(CN2CCN(c3ccc(C(=O)NS(=O)(=O)c4ccc(NCC5CCOCC5)c([N+](=O)[O-])c4)c(Oc4cnc5[nH]ccc5c4)c3)CC2)=C(c2ccc(Cl)cc2)C1 [Venetoclax] + C[C@@H]1COCCN1C2=NC(=NC(=C2)C3(CC3)[S@](=N)(=O)C)C4=C5C=CNC5=NC=C4 [AZD6738] (first compound max 1 µM, 7x7, partner max 10 µM)	0.968	0.342	0.887	0.736	0.671	1	0.745	0.411	0.966	0.938	0.344	1	0.515	0.901	0.277	0.514	0.719	0.677	0.837	0.596
Cc1c2c(nn1C)CSCc1cc(n(C)n1)CSc1cc(c3ccccc3c1)OCCCc1c(C(=O)O)n(C)c3c-2c(Cl)ccc13 [AZD5991] + C1CN(CCC1(C(=O)N[C@@H](CCO)C2=CC=C(C=C2)Cl)N)C3=NC=NC4=C3C=CN4 [Capivasertib] (first compound max 1 µM, 7x7, partner max 3 µM)	0.32	0.231	0.986	0.422	0.432	1	0.174	0.427	0.725	0.487	0.242	0.989	0.267	0.472	0.18	0.287	0.226	0.354	0.776	0.372
Cc1c2c(nn1C)CSCc1cc(n(C)n1)CSc1cc(c3ccccc3c1)OCCCc1c(C(=O)O)n(C)c3c-2c(Cl)ccc13 [AZD5991] + C[C@@H]1COCCN1C2=NC(=NC(=C2)C3(CC3)[S@](=N)(=O)C)C4=C5C=CNC5=NC=C4 [AZD6738] (first compound max 1 µM, 7x7, partner max 10 µM)	0.901	0.331	0.98	0.688	0.805	1	0.767	0.426	0.92	0.957	0.198	0.981	0.483	0.889	0.259	0.491	0.643	0.615	0.932	0.494
Cc1c2c(nn1C)CSCc1cc(n(C)n1)CSc1cc(c3ccccc3c1)OCCCc1c(C(=O)O)n(C)c3c-2c(Cl)ccc13 [AZD5991] + C[C@@H](Nc1cc(F)cc(F)c1)c1cc(C(=O)N(C)C)cc2c(=O)cc(N3CCOCC3)oc12 [AZD8186] (first compound max 1 µM, 7x7, partner max 3 µM)	0.313	0.378	0.939	0.442	0.454	0.955	0.212	0.371	0.654	0.409	0.366	0.949	0.493	0.548	0.254	0.307	0.317	0.325	0.401	0.45
CC(=O)c1c(C)c2cnc(Nc3ccc(N4CCNCC4)cn3)nc2n(C2CCCC2)c1=O [Palbociclib] + CN(CC[C@H](CSC1=CC=CC=C1)NC2=C(C=C(C=C2)S(=O)(=O)NC(=O)C3=CC=C(C=C3)N4CCC(CC4)[C@H](C5=CC=CC=C5C6=CC=C(C=C6)Cl)O)S(=O)(=O)C(F)(F)F)CCO [AZD4320] (first compound max 10 µM, 7x7, partner max 1 µM)	0.988		0.678		0.649	0.949	0.54	0.618	0.846	0.392			0.355		0.743	0.875	0.37	0.889	0.31	0.312
C[C@@H](c1ccc2nccn2c1)n1nnc2ncc(-c3cnn(C)c3)nc21 [Savolitinib] + CN(CC[C@H](CSC1=CC=CC=C1)NC2=C(C=C(C=C2)S(=O)(=O)NC(=O)C3=CC=C(C=C3)N4CCC(CC4)[C@H](C5=CC=CC=C5C6=CC=C(C=C6)Cl)O)S(=O)(=O)C(F)(F)F)CCO [AZD4320] (first compound max 1 µM, 7x7, partner max 1 µM)	0.824		0.271		0.639	0.481	0.194	0.334	0.495	0.0987			0.216		0.855	1	0.188	0.7	0.191	0.259
